Experimental findings from US4371544A, “Pharmaceutical composition containing 1,1,3,5-substituted biuret compound” (Taiho Pharmaceutical Company Limited, priority 1979, dated 1983) are described below.

A word on the LD50: it is the dose expected to kill half of the subjects tested. The ED50 is the midpoint of the dose-response relation.

Data set [1] is described as follows: Acute toxicity (oral, mice, 7 days observation). Format: in vivo. Conditions: mouse, in vivo. The method in brief: (§1)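 Overnight-fasted male ddy mice (20-25 g) received compound orally as a suspension in 0.25% carboxymethylcellulose, observed 7 days. Lethal dose (mg/kg) taken from deaths per mice tested; LD50 given where marked.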
Data set [2] relates to ddy strain of male mice. Description: Analgesic activity, acetic acid-induced stretching method. The class given is in vivo, mouse (ddy). To be noted: Mus musculus; for ED50: oral, Δ mark, range in parentheses. In outline:
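Fasted male mice (20-25 g) received test compound orally, usually 100 mg/kg, as a 0.25% carboxymethylcellulose suspension, then 0.2 ml 0.7% acetic acid i.p. 1 hour later. Stretching was scored and activity given as % inhibition; some values are ED50 (mg/kg).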

Data set [3] has as its system ddy strain of male mice. Description: Analgesic activity, Haffner method (morphine threshold dose, clamp). Format: in vivo, mouse (ddy). To be noted: Mus musculus; for ED50: oral, Δ mark, range in parentheses; for inhibition in vivo at 100 mg/kg: 100 mg/kg oral, 45 minutes before morphine hydrochloride. In outline:
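Fasted male ddy mice weighing 20-25 g were given the test compound orally as a suspension in 0.25% carboxymethylcellulose. After 45 minutes, a threshold dose (1.5-2.5 mg/kg body weight) of morphine hydrochloride was injected subcutaneously, and clamp-induced pain reactions were watched for 1 hour. Analgesic activity was expressed as inhibitory ratio (%) or as ED50.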

Data set [4] has as its system Wistar strain of male rats. The data set can be described thus: Anti-pyretic activity (dry-yeast-induced fever). Format: in vivo, rat (Wistar). Conditions: oral (dose not given), up to 4 hours after administration. The method in brief: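 Male Wistar rats (150–180 g), fasted overnight, given 10% dry-yeast suspension subcutaneously (1 ml/100 g). Compound dosed orally as 0.25% CMC suspension 5 h later; body temperature followed, febrile index integrated to 4 h post-dose and expressed as % inhibition.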

Data set [5] deals with Wistar strain of male rats. Description: Anti-inflammatory activity (acute carrageenin-induced inflammatory test, hindpaw). Format: in vivo, rat (Wistar). Conditions: Rattus norvegicus, read-out: Anti-inflammatory activity, inflammation inhibitory ratio. How it is done: Next, several tests for determining the pharmacological properties, in that acute toxicity, anti-pyretic activity, analgesic activity and anti-inflammatory activity of the present 1,1,3,5-substituted biuret compounds of the formula (1) were conducted and the test results are shown in Table (2). In the tests, each compounds to be tested was used as a suspension in 0.25% carboxymethylcellulose solution. Methods for testing are explained as follows:
According to the method of acute carrageenin-induced inflammatory test [Folia Pharmacologia Japonica, Vol. 56, pp. 575 (1960)], the Wistar strain of male rats (body weight, 150-180 g) were used as test animals. The rats were fasted overnight, 100 mg/kg body weight of the test compound was administered orally, then 1 hour after the administration, 0.1 ml of 1% carrageenin solution, as the inflammation inducing agent, was injected subcutaneously to the hindpaw of the rat and the volume of the hindpaw was measured at time sequences, Anti-inflammatory activity of the test compound was calculated as inflammation inhibitory ratio (%) at 3 hours after the injection of inflammation inducing agent.

For data set [6], the system named is ddy strain of male mice. The data set can be described thus: Acute toxicity (oral, mice, 7 days observation). The class given is in vivo. The method in brief: as §1
Setting [7] is: oral, male ddy mice, 7 days observation, Δ mark, read-out: 50% lethal dose, LD50.
[8] abbreviates: 100 mg/kg oral, 3 hours after carrageenin.
[9] abbreviates: po, read-out: Analgesic activity, acetic acid-induced stretching method, inhibitory ratio.
Setting [10] is: read-out: Analgesic activity, Haffner method, inhibitory ratio.

Read-outs that look alike come from different tables or passages of the source.

Take `CNC(=O)NC(=O)N(C)c1ccccc1` [Compound No. 49, 1,5-dimethyl-1-phenylbiuret]: in data set [1] (setting [7]), the LD50 at 168 h stood at 1600 mg/kg. For the same compound, the ED50 was determined as 34 mg/kg in the data set on ddy strain of male mice [2] and 86 mg/kg with ddy strain of male mice [3]. In data set [4], the “Anti-pyretic activity, inhibitory ratio (febril index)” value turned out to be 84%. Moreover, the inhibition in vivo at 100 mg/kg in data set [5] (po, 3 h) came out at 32%.
Regarding `CNC(=O)N(C)C(=O)N(C)c1ccccc1` [Compound No. 53, 1,3,5-Trimethyl-1-phenylbiuret], the LD50 at 168 h in data set [1] (setting [7]) stood at 1350 mg/kg. Moreover, the ED50 with ddy strain of male mice [2] turned out to be 68 mg/kg; in the data set on ddy strain of male mice [3], 135 mg/kg. The “Anti-pyretic activity, inhibitory ratio (febril index)” value in data set [4] is listed as 108%. The inhibition in vivo at 100 mg/kg in data set [5] (setting [8]) came out at 76%.
Take `CCN(C(=O)N(C)C(=O)NC)c1ccccc1` [Compound No. 58, 1-ethyl-3,5-dimethyl-1-phenylbiuret]: the LD50 at 168 h in data set [1] (setting [7]) was determined as 1000 mg/kg. The inhibition in vivo at 100 mg/kg in the data set on ddy strain of male mice [2] (setting [9]) is 75%; with ddy strain of male mice [3] (setting [10]), 62.5%; in data set [5] (po, 3 h) it was 60%. Besides, the “Anti-pyretic activity, inhibitory ratio (febril index)” value in data set [4] was 137%.
`CCN(C(=O)N(C)C(=O)NC)c1ccc(OC)cc1` [Compound No. 61, 1-Ethyl-1-(4-methoxyphenyl)-3,5-dimethylbiuret]: the LD50 at 168 h in data set [1] (setting [7]) worked out at 1250 mg/kg. Besides, the inhibition in vivo at 100 mg/kg in the data set on ddy strain of male mice [2] (setting [9]) is 75%; in the data set on ddy strain of male mice [3] (setting [10]), 25%; in data set [5] (setting [8]) it was 52%. Moreover, the “Anti-pyretic activity, inhibitory ratio (febril index)” value in data set [4] worked out at 35%.
`CNC(=O)N(C(=O)N(C)C)c1ccccc1` [compound 39, 1,1,5-Trimethyl-3-phenylbiuret]: the LD50 at 168 h in data set [1] (setting [7]) stood at 93 mg/kg. Further, the inhibition in vivo at 50 mg/kg in the data set on ddy strain of male mice [2] (setting [9]) worked out at 25%; in the data set on ddy strain of male mice [3] (50 mg/kg oral, read-out: Analgesic activity, Haffner method, inhibitory ratio), 25%. The inhibition in vivo at 25 mg/kg in data set [5] (po, 3 h) came out at 33%.
Take `CN(C)C(=O)N(C(=O)NC1CCCCC1)c1ccccc1` [compound 41, 1,1-Dimethyl-3-phenyl-5-cyclohexylbiuret]: the LD50 at 168 h in data set [1] (setting [7]) worked out at 1280 mg/kg. Also, the inhibition in vivo at 200 mg/kg with ddy strain of male mice [2] (setting [9]) was found to be 50%. In the data set on ddy strain of male mice [3] (setting [10]), the inhibition in vivo at 100 mg/kg amounted to 62.5%.
As for `CCN(C)C(=O)NC(=O)NCc1ccccc1` [compound 44, 1-Methyl-1-ethyl-5-benzylbiuret], in data set [1] (setting [7]), the LD50 at 168 h was determined as 1400 mg/kg. In addition, the inhibition in vivo at 200 mg/kg in the data set with ddy strain of male mice [2] (200 mg/kg oral, read-out: Analgesic activity, acetic acid-induced stretching method, inhibitory ratio) was determined as 87.5%. For the same compound, the inhibition in vivo at 100 mg/kg in data set [5] (po, 3 h) was 47%.
As to `CCNC(=O)NC(=O)N(C)c1ccccc1` [compound 50, 1-Methyl-1-phenyl-5-ethylbiuret], the LD50 at 168 h in data set [1] (setting [7]) is 1960 mg/kg. Moreover, the inhibition in vivo at 100 mg/kg in the data set with ddy strain of male mice [2] (setting [9]) amounted to 50%; with ddy strain of male mice [3] (setting [10]) it was 37.5%; in data set [5] (setting [8]) it was 38%. For the same compound, the “Anti-pyretic activity, inhibitory ratio (febril index)” value in data set [4] is on record as 90%.
For `CCCNC(=O)NC(=O)N(C)c1ccccc1` [compound 51, 1-Methyl-1-phenyl-5-n-propylbiuret], the “Acute toxicity: death number of mice/number of mice tested” value in the data set with ddy strain of male mice [6] (500 mg/kg oral) is 1/4; with ddy strain of male mice [6] (1000 mg/kg oral), 2/4. Besides, the inhibition in vivo at 100 mg/kg in the data set on ddy strain of male mice [2] (setting [9]) came out at 37.5%; with ddy strain of male mice [3] (setting [10]), 87.5%; in data set [5] (po, 3 h), 60%. For the same compound, the “Anti-pyretic activity, inhibitory ratio (febril index)” value in data set [4] is given as 164%.
Consider `CCCCNC(=O)NC(=O)N(C)c1ccccc1` [compound 52, 1-Methyl-1-phenyl-5-n-butylbiuret], for which the “Acute toxicity: death number of mice/number of mice tested” value in the data set on ddy strain of male mice [6] (1000 mg/kg oral) is given as 0/4; in the data set with ddy strain of male mice [6] (2000 mg/kg oral), 3/4. Further, the inhibition in vivo at 100 mg/kg stood at 62.5% in the data set with ddy strain of male mice [2] (100 mg/kg oral, 1 hour before acetic acid, read-out: Analgesic activity, acetic acid-induced stretching method, inhibitory ratio); 50% in the data set on ddy strain of male mice [3] (setting [10]); 48% in data set [5] (setting [8]). Besides, in data set [4], the “Anti-pyretic activity, inhibitory ratio (febril index)” value was determined as 104%.
Turning to `CCNC(=O)N(C)C(=O)N(C)c1ccccc1` [compound 54, 1,3-Dimethyl-1-phenyl-5-ethylbiuret], the LD50 at 168 h in data set [1] (setting [7]) was determined as 1350 mg/kg. Besides, the results for the inhibition in vivo at 100 mg/kg (in the data set with ddy strain of male mice [2] (setting [9]); with ddy strain of male mice [3] (setting [10]); in data set [5] (setting [8])) were 37.5%, 75% and 54%, respectively. The “Anti-pyretic activity, inhibitory ratio (febril index)” value in data set [4] turned out to be 58%.
`CC(C)NC(=O)N(C)C(=O)N(C)c1ccccc1` [compound 56, 1,3-Dimethyl-1-phenyl-5-isopropylbiuret]: the LD50 at 168 h in data set [1] (setting [7]) is 1320 mg/kg. For the same compound, the inhibition in vivo at 100 mg/kg with ddy strain of male mice [2] (setting [9]) worked out at 25%; in the data set with ddy strain of male mice [3] (setting [10]), 12.5%; in data set [5] (po, 3 h), 47%. In data set [4], the “Anti-pyretic activity, inhibitory ratio (febril index)” value stood at 65%.
Regarding `CCN(C(=O)N(C)C(=O)NC)c1ccccc1Cl` [compound 59, 1-Ethyl-1-(2-chlorophenyl)-3,5-dimethylbiuret], in data set [1] (setting [7]), the LD50 at 168 h worked out at 810 mg/kg. Besides, the inhibition in vivo at 100 mg/kg was found to be 37.5% in the data set with ddy strain of male mice [2] (setting [9]); 12.5% with ddy strain of male mice [3] (setting [10]); 51% in data set [5] (po, 2 h). Also, the “Anti-pyretic activity, inhibitory ratio (febril index)” value in data set [4] is 64%.
With `CCN(C(=O)N(C)C(=O)NC)c1ccc(Cl)cc1` [compound 60, 1-Ethyl-1-(4-chlorophenyl)-3,5-dimethylbiuret], the “Acute toxicity: death number of mice/number of mice tested” value in the data set with ddy strain of male mice [6] (1000 mg/kg oral) is on record as 1/4; with ddy strain of male mice [6] (2000 mg/kg oral), 3/4. Moreover, the inhibition in vivo at 100 mg/kg is 75% in the data set with ddy strain of male mice [2] (setting [9]); 50% in the data set on ddy strain of male mice [3] (setting [10]); 33% in data set [5] (po, 3 h). In addition, in data set [4], the “Anti-pyretic activity, inhibitory ratio (febril index)” value is recorded as 88%.
`CCN(C(=O)N(C)C(=O)NC)c1ccc(C)cc1` [compound 62]: the 50% lethal dose (LD50) at 168 h in data set [1] (po) was 1480 mg/kg. The inhibition in vivo at 100 mg/kg with ddy strain of male mice [2] (setting [9]) amounted to 62.5%; with ddy strain of male mice [3] (setting [10]), 37.5%. Besides, in data set [4], the “Anti-pyretic activity, inhibitory ratio (febril index)” value is listed as 18%.
Turning to `CCCN(C(=O)N(C)C(=O)NC)c1ccccc1` [compound 63, 1-n-Propyl-1-phenyl-3,5-dimethylbiuret], the “Acute toxicity: death number of mice/number of mice tested” value in the data set with ddy strain of male mice [6] (1000 mg/kg oral) is 3/4; with ddy strain of male mice [6] (2000 mg/kg oral) it was 4/4. The inhibition in vivo at 100 mg/kg in the data set with ddy strain of male mice [2] (setting [9]) amounted to 50%; in the data set with ddy strain of male mice [3] (setting [10]), 50%; in data set [5] (setting [8]) it was 58%. Also, the “Anti-pyretic activity, inhibitory ratio (febril index)” value in data set [4] amounted to 76%.
With `CCCCN(C(=O)N(C)C(=O)NC)c1ccccc1` [compound 64, 1-n-Butyl-1-phenyl-3,5-dimethylbiuret], the results for the “Acute toxicity: death number of mice/number of mice tested” value with ddy strain of male mice [6] (500 mg/kg oral) and with ddy strain of male mice [6] (1000 mg/kg oral) were 1/4 and 2/4, respectively. The inhibition in vivo at 100 mg/kg with ddy strain of male mice [2] (setting [9]) came to 25%; in the data set with ddy strain of male mice [3] (setting [10]), 37.5%; in data set [5] (po, 3 h), 43%. Further, the “Anti-pyretic activity, inhibitory ratio (febril index)” value in data set [4] amounted to 50%.
Regarding `CN(C(=O)Nc1ccccc1)C(=O)N1CCCCC1` [compound 70, 1,1-Pentamethylene-3-methyl-5-phenylbiuret], the LD50 at 168 h in data set [1] (setting [7]) is 515 mg/kg. Moreover, the figures for the inhibition in vivo at 100 mg/kg in the data set with ddy strain of male mice [2] (setting [9]) and in the data set with ddy strain of male mice [3] (setting [10]) were 62.5% and 37.5%, respectively.
